The IC50 is the concentration that gives 50% inhibition.

Where a name gives a salt, the structure may show the parent alone.

For one test, the target named is interaction between p53 and MDM2 proteins (recombinant GST-tagged MDM2) (Homo sapiens, UniProt Q00987). Put plainly: HTRF assay of inhibition of the p53-MDM2 interaction (GST-MDM2 / biotinylated p53 peptide).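 Further: FRET read-out from Eu-labelled anti-GST antibody to streptavidin-APC, with 90 nM N-terminally biotinylated p53 peptide and 160 ng/ml GST-MDM2 in Tris-borate saline containing 1 mM DTT, 384-well format.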 The test is classed as binding. The following applies: HTRF, 0.02% BSA, 37° C. 1 h. In general terms: In TR-FRET formats the signal depends on donor and acceptor labels being close together.
Chain of interaction between p53 and MDM2 proteins (recombinant GST-tagged MDM2) (Q00987 whole entry): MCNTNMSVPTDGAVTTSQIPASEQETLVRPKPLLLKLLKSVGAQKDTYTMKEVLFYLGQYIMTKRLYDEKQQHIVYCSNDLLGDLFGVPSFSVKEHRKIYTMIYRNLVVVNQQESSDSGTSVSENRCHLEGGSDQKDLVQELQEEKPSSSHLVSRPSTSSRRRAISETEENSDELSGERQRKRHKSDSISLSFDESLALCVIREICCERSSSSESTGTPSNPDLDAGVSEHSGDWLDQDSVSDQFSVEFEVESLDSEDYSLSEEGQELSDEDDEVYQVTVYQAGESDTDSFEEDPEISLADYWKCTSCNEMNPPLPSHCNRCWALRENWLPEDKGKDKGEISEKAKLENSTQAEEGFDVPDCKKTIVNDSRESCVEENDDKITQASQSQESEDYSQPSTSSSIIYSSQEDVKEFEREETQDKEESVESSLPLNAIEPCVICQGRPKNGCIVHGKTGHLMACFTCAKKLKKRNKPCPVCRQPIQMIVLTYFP
Protocol: The ability of the compounds to inhibit the interaction between p53 and MDM2 proteins was measured by an HTRF (homogeneous time-resolved fluorescence) assay in which recombinant GST-tagged MDM2 binds to a peptide that resembles the MDM2-interacting region of p53 (Lane et al.). Binding of GST-MDM2 protein and p53-peptide (biotinylated on its N-terminal end) is registered by the FRET (fluorescence resonance energy transfer) between Europium (Eu)-labeled anti-GST antibody and streptavidin-conjugated Allophycocyanin (APC).
Test is performed in black flat-bottom 384-well plates (Costar) in a total volume of 40 uL containing: 90 nM biotinylate peptide, 160 ng/ml GST-MDM2, 20 nM streptavidin-APC (PerkinElmerWallac), 2 nM Eu-labeled anti-GST-antibody (PerkinElmerWallac), 0.02% bovine serum albumin (BSA), 1 mM dithiothreitol (DTT) and 20 mM Tris-borate saline (TBS) buffer as follows: Add 10 uL of GST-MDM2 (640 ng/ml working solution) in reaction buffer to each well. […] Incubate at 37° C. for 1 h.
As to `COc1cc(C(=O)NC(C)CO)ccc1NC(=O)[C@@H]1N[C@@H](CC(C)(C)C)[C@](C#N)(c2ccc(Cl)cc2F)[C@H]1c1cccc(Cl)c1F` (mixture of isomers) [Example 14, Rac-(2R,3S,4R,5S)-4-(4-Chloro-2-fluoro-phenyl)-3-(3-chloro-2-fluoro-phenyl)-4-cyano-5-(2,2-dimethyl-propyl)-pyrrolidine-2-carboxylic acid [4-(2-hydroxy-1-methyl-ethylcarbamoyl)-2-methoxy-phenyl]-amide], the IC50 came to 0.00675 µM. Take `COc1cc(C(=O)OCCO)ccc1NC(=O)[C@@H]1N[C@@H](CC(C)(C)C)[C@](C#N)(c2ccc(Cl)cc2F)[C@H]1c1cccc(Cl)c1F` [Example 1, 2-Hydroxyethyl 4-((2R,3S,4R,5S)-3-(3-chloro-2-fluorophenyl)-4-(4-chloro-2-fluorophenyl)-4-cyano-5-neopentylpyrrolidine-2-carboxamido)-3-methoxybenzoate]: the IC50 turned out to be 0.0111 µM.

With `COc1cc(C(=O)OCCOC(=O)[C@H](C)N)ccc1NC(=O)[C@@H]1N[C@@H](CC(C)(C)C)[C@](C#N)(c2ccc(Cl)cc2F)[C@H]1c1cccc(Cl)c1F` [Example 4, 4-{[(2R,3S,4R,5S)-3-(3-Chloro-2-fluoro-phenyl)-4-(4-chloro-2-fluoro-phenyl)-4-cyano-5-(2,2-dimethyl-propyl)-pyrrolidine-2-carbonyl]-amino}-3-methoxy-benzoic acid 2-((S)-2-amino-propionyloxy)-ethyl ester], the IC50 worked out at 0.00984 µM. As to `COc1cc(C(=O)OCCOC(=O)[C@@H](C)N)ccc1NC(=O)[C@@H]1N[C@@H](CC(C)(C)C)[C@](C#N)(c2ccc(Cl)cc2F)[C@H]1c1cccc(Cl)c1F` [Example 6, 4-{[(2R,3S,4R,5S)-3-(3-Chloro-2-fluoro-phenyl)-4-(4-chloro-2-fluoro-phenyl)-4-cyano-5-(2,2-dimethyl-propyl)-pyrrolidine-2-carbonyl]-amino}-3-methoxy-benzoic acid 2-((R)-2-amino-propionyloxy)-ethyl ester], the IC50 is 0.0371 µM. `COc1cc(C(=O)OCCN(C)C)ccc1NC(=O)[C@@H]1N[C@@H](CC(C)(C)C)[C@](C#N)(c2ccc(Cl)cc2F)[C@H]1c1cccc(Cl)c1F` [Example 7, 2-(Dimethylamino)ethyl 4-((2R,3S,4R,5S)-3-(3-chloro-2-fluorophenyl)-4-(4-chloro-2-fluorophenyl)-4-cyano-5-neopentylpyrrolidine-2-carboxamido)-3-methoxybenzoate]: the IC50 came to 0.0146 µM. As for `COc1cc(C(=O)OCC2COC(C)(C)O2)ccc1NC(=O)[C@@H]1N[C@@H](CC(C)(C)C)[C@](C#N)(c2ccc(Cl)cc2F)[C@H]1c1cccc(Cl)c1F` (stereo partly drawn) [Example 8, (2,2-Dimethyl-1,3-dioxolan-4-yl)methyl 4-((2R,3S,4R,5S)-3-(3-chloro-2-fluorophenyl)-4-(4-chloro-2-fluorophenyl)-4-cyano-5-neopentylpyrrolidine-2-carboxamido)-3-methoxybenzoate], the IC50 stood at 0.00957 µM.

As for `COc1cc(C(=O)OCC(CO)CO)ccc1NC(=O)[C@@H]1N[C@@H](CC(C)(C)C)[C@](C#N)(c2ccc(Cl)cc2F)[C@H]1c1cccc(Cl)c1F` [Example 9, 3-Hydroxy-2-(hydroxymethyl)propyl 4-((2R,3S,4R,5S)-3-(3-chloro-2-fluorophenyl)-4-(4-chloro-2-fluorophenyl)-4-cyano-5-neopentylpyrrolidine-2-carboxamido)-3-methoxybenzoate], the IC50 came out at 0.012 µM. The same measure, in the same setting: for `COCCOC(=O)c1ccc(NC(=O)[C@@H]2N[C@@H](CC(C)(C)C)[C@](C#N)(c3ccc(Cl)cc3F)[C@H]2c2cccc(Cl)c2F)c(OC)c1` [Example 10, 2-Methoxyethyl 4-((2R,3S,4R,5S)-3-(3-chloro-2-fluorophenyl)-4-(4-chloro-2-fluorophenyl)-4-cyano-5-neopentylpyrrolidine-2-carboxamido)-3-methoxybenzoate] the value was 0.0107 µM; for `COc1cc(C(=O)OCCI)ccc1NC(=O)[C@@H]1N[C@@H](CC(C)(C)C)[C@](C#N)(c2ccc(Cl)cc2F)[C@H]1c1cccc(Cl)c1F` [Example 11, 2-Iodoethyl 4-((2R,3S,4R,5S)-3-(3-chloro-2-fluorophenyl)-4-(4-chloro-2-fluorophenyl)-4-cyano-5-neopentylpyrrolidine-2-carboxamido)-3-methoxybenzoate], 0.0117 µM; for `COc1cc(C(=O)OCCOP(=O)(OC(C)(C)C)OC(C)(C)C)ccc1NC(=O)[C@@H]1N[C@@H](CC(C)(C)C)[C@](C#N)(c2ccc(Cl)cc2F)[C@H]1c1cccc(Cl)c1F` [Example 12, 2-(Di-tert-butoxyphosphoryloxy)ethyl 4-((2R,3S,4R,5S)-3-(3-chloro-2-fluorophenyl)-4-(4-chloro-2-fluorophenyl)-4-cyano-5-neopentylpyrrolidine-2-carboxamido)-3-methoxybenzoate], 0.00959 µM.

As to `COc1cc(C(=O)OCCOP(=O)(O)O)ccc1NC(=O)[C@@H]1N[C@@H](CC(C)(C)C)[C@](C#N)(c2ccc(Cl)cc2F)[C@H]1c1cccc(Cl)c1F` [Example 13, 2-(Phosphonooxy)ethyl 4-((2R,3S,4R,5S)-3-(3-chloro-2-fluorophenyl)-4-(4-chloro-2-fluorophenyl)-4-cyano-5-neopentylpyrrolidine-2-carboxamido)-3-methoxybenzoate, trifluoroacetate salt], the IC50 came to 0.00454 µM.

Turning to `CCN(CC)CCOC(=O)c1ccc(NC(=O)[C@@H]2N[C@@H](CC(C)(C)C)[C@](C#N)(c3ccc(Cl)cc3F)[C@H]2c2cccc(Cl)c2F)c(OC)c1` [Example 16, 4-{[(2R,3S,4R,5S)-4-(4-Chloro-2-fluoro-phenyl)-3-(3-chloro-2-fluoro-phenyl)-4-cyano-5-(2,2-dimethyl-propyl)-pyrrolidine-2-carbonyl]-amino}-3-methoxy-benzoic acid 2-diethylamino-ethyl ester], the IC50 stood at 0.0501 µM.

In the case of `COc1cc(C(=O)OC2CCN(C)CC2)ccc1NC(=O)[C@@H]1N[C@@H](CC(C)(C)C)[C@](C#N)(c2ccc(Cl)cc2F)[C@H]1c1cccc(Cl)c1F` [Example 17, 4-{[(2R,3S,4R,5S)-4-(4-Chloro-2-fluoro-phenyl)-3-(3-chloro-2-fluoro-phenyl)-4-cyano-5-(2,2-dimethyl-propyl)-pyrrolidine-2-carbonyl]-amino}-3-methoxy-benzoic acid 1-methyl-piperidin-4-yl ester], the IC50 stood at 0.0115 µM.

Consider `COc1cc(C(=O)OCC2CCN(C)CC2)ccc1NC(=O)[C@@H]1N[C@@H](CC(C)(C)C)[C@](C#N)(c2ccc(Cl)cc2F)[C@H]1c1cccc(Cl)c1F` [Example 18, 4-{[(2R,3S,4R,5S)-4-(4-Chloro-2-fluoro-phenyl)-3-(3-chloro-2-fluoro-phenyl)-4-cyano-5-(2,2-dimethyl-propyl)-pyrrolidine-2-carbonyl]-amino}-3-methoxy-benzoic acid 1-methyl-piperidin-4-ylmethyl ester], for which the IC50 was 0.024 µM. The same measure, in the same setting: for `COc1cc(C(=O)OCCN2CCN(C)CC2)ccc1NC(=O)[C@@H]1N[C@@H](CC(C)(C)C)[C@](C#N)(c2ccc(Cl)cc2F)[C@H]1c1cccc(Cl)c1F` [Example 19, 4-{[(2R,3S,4R,5S)-4-(4-Chloro-2-fluoro-phenyl)-3-(3-chloro-2-fluoro-phenyl)-4-cyano-5-(2,2-dimethyl-propyl)-pyrrolidine-2-carbonyl]-amino}-3-methoxy-benzoic acid 2-(4-methyl-piperazin-1-yl)-ethyl ester] the value was 0.00558 µM; for `COc1cc(C(=O)On2nnc3cccnc32)ccc1NC(=O)[C@@H]1N[C@@H](CC(C)(C)C)[C@](C#N)(c2ccc(Cl)cc2F)[C@H]1c1cccc(Cl)c1F` [Example 20, 4-{[(2R,3S,4R,5S)-4-(4-Chloro-2-fluoro-phenyl)-3-(3-chloro-2-fluoro-phenyl)-4-cyano-5-(2,2-dimethyl-propyl)-pyrrolidine-2-carbonyl]-amino}-3-methoxy-benzoic acid [1,2,3]triazolo[4,5-b]pyridin-3-yl ester], 0.00654 µM; for `COc1cc(C(=O)OC(C)CN2CCOCC2)ccc1NC(=O)[C@@H]1N[C@@H](CC(C)(C)C)[C@](C#N)(c2ccc(Cl)cc2F)[C@H]1c1cccc(Cl)c1F` (stereo partly drawn) [Example 21, 4-{[(2R,3S,4R,5S)-4-(4-Chloro-2-fluoro-phenyl)-3-(3-chloro-2-fluoro-phenyl)-4-cyano-5-(2,2-dimethyl-propyl)-pyrrolidine-2-carbonyl]-amino}-3-methoxy-benzoic acid 1-methyl-2-morpholin-4-yl-ethyl ester], 0.0137 µM. For the compound `COc1cc(C(=O)OCCN2CCOCC2)ccc1NC(=O)[C@@H]1N[C@@H](CC(C)(C)C)[C@](C#N)(c2ccc(Cl)cc2F)[C@H]1c1cccc(Cl)c1F` [Example 22, 4-{[(2R,3S,4R,5S)-4-(4-Chloro-2-fluoro-phenyl)-3-(3-chloro-2-fluoro-phenyl)-4-cyano-5-(2,2-dimethyl-propyl)-pyrrolidine-2-carbonyl]-amino}-3-methoxy-benzoic acid 2-morpholin-4-yl-ethyl ester], the IC50 was 0.015 µM.

Staying with this test, now noted: read-out: IC50 (uM, 0.02% BSA); HTRF, 0.02% BSA, 37° C. 1 h.
“4-{[(2R,3S,4R,5S)-4-(4-Chloro-2-fluoro-phenyl)-3-(3-chloro-2-fluoro-phenyl)-4-cyano-5-(2,2-dimethyl-propyl)-pyrrolidine-2-carbonyl]-amino}-3-methoxy-benzoic acid, dodecaethylene glycol ester [Example 43]”: the IC50 worked out at 0.0062 µM.

On to “4-{[(2R,3S,4R,5S)-4-(4-Chloro-2-fluoro-phenyl)-3-(3-chloro-2-fluoro-phenyl)-4-cyano-5-(2,2-dimethyl-propyl)-pyrrolidine-2-carbonyl]-amino}-3-methoxy-benzoic acid, polyethylene glycol-200 ester, trifluoroacetate salt [Example 45]”, for which the IC50 is 0.0105 µM.

Consider “4-{[(2R,3S,4R,5S)-4-(4-Chloro-2-fluoro-phenyl)-3-(3-chloro-2-fluoro-phenyl)-4-cyano-5-(2,2-dimethyl-propyl)-pyrrolidine-2-carbonyl]-amino}-3-methoxy-benzoic acid, polyethylene glycol-600 ester, trifluoroacetate salt [Example 44]”, for which the IC50 amounted to 0.0113 µM.

Source of the values: patent publication US9371280B2, “Substituted pyrrolidine-2-carboxamides” (Hoffmann-La Roche Inc., priority 2012, dated 2016).
